Measurements taken from patent US4008323A, “Method of reducing cholesterol using certain aromatic keto acids” (Pierre Fabre S.A., priority 1974, dated 1977).
Where two headings read alike, the source gives them in different places.

Experiments:
Solubility properties = type: physicochemical; details: for Solubility in ethyl alcohol: ethyl alcohol / ethanol / alcohol; for Solubility in water: in words
[1] = tested on: writhings induced by acetic acid; assay: Writhing test, acetic acid (analgetic); type: in vivo, male mouse; details: 200 mg/kg by mouth, t + 60 to t + 70 min
Protocol: The administration of the compounds is effected by mouth at the time t. […] The determination of the writhings is effected from t + 60 min. to t + 70 min. The vehicle used for the administration of the products is a 5% solution of Tween 80 in 0.9% NaCl which will serve as control.

carrageenin edema = assay: Carrageenin edema test in rats (antiinflammatory); type: in vivo; details: for change in vivo at 300 mg/kg / change in vivo at 200 mg/kg / change in vivo at 75 mg/kg: Rattus norvegicus; for change in vivo at 300 mg/kg: 300 mg/kg oral; for change in vivo at 200 mg/kg: 200 mg/kg oral; for % var. / action (variation of paw volume increase vs controls) / change in vivo at 75 mg/kg: 75 mg/kg oral
Protocol: The antiinflammatory properties were shown by the carrageenin edema test in rats, the products having been administered orally 1 hour before the intrapodal injection of 0.05 ml of a 2% suspension of carrageenin; the volume of the rat's paw was measured by plethysmoscopy 3, 4 and 6 hours afterwards.
The experiment concerned for each lot […]; one lot of animals receiving only the vehicle (2 ml/100 g of Tween + water) which served for the administration of the products, constituted the control lot. The following table sets forth the results obtained: […]

[2] = Acute toxicity in mice, oral LD50 (method of Miller & Tainter); details: mouse, in vivo, mortality determined 48 hours after administration
Protocol: The chemical compounds previously described were submitted to toxicity tests. It was determined in mice by oral administration and was calculated in accordance with the method of MILLER & TAINTER. It is generally low and greater than 1000 mg/kg.

[3] = sodium salt, water, read-out: Solubility in form of sodium salt
[4] = + 3 hrs, read-out: % increase in volume of the paw, mean (m)
[5] = + 4 hrs, read-out: % increase in volume of the paw, mean (m)
[6] = + 6 hrs, read-out: % increase in volume of the paw, mean (m)
[7] = + 6 hrs, read-out: Action (variation of paw volume increase vs controls)
[8] = read-out: % mean variation of the volume of the paw at 3, 4 and 6 hrs
[9] = + 3 hrs, read-out: Action (variation of paw volume increase vs controls)
[10] = + 4 hrs, read-out: Action (variation of paw volume increase vs controls)

Compound | Solubility in ethyl alcohol (Solubility properties) [%] | Solubility in propylene glycol (Solubility properties) [%] | solubility (Solubility properties; [3]) [µg/mL] | Solubility in water (Solubility properties; water) | Solubility in N-methyl pyrrolidone (Solubility properties) [%] | % Decrease (of writhings) [1] | Mean No. of Writhings [1] | change in vivo at 300 mg/kg (carrageenin edema; [4]) [%] | change in vivo at 300 mg/kg (carrageenin edema; [5]) [%] | change in vivo at 300 mg/kg (carrageenin edema; [6]) [%] | change in vivo at 300 mg/kg (carrageenin edema; [7]) [%] | change in vivo at 300 mg/kg (carrageenin edema; [8]) [%] | Solubility in NN-dimethyl acetamide (Solubility properties) [%] | change in vivo at 300 mg/kg (carrageenin edema; [9]) [%] | change in vivo at 300 mg/kg (carrageenin edema; [10]) [%] | further results
C=C(CC(=O)c1ccc(Oc2ccccc2)cc1)C(=O)O [Example 4, 2-methylene 4-oxo 4-(paraphenoxyphenyl) butyric acid] | 3 | 1 | 100000 | insoluble | – | – | – | – | – | – | – | – | – | – | – | Solubility in NN dimethyl formamide (Solubility properties; NN dimethyl formamide): 50%; Solubility in acetone (Solubility properties): 10%; Solubility in chloroform (Solubility properties; chloroform): 5%
C=C(CC(=O)c1ccc(-c2ccc(Br)cc2)cc1)C(=O)O [Example 5, 2-methylene 4-oxo 4-(phenyl-4'-parabromophenyl) butyric acid] | 1 | – | – | insoluble | 25 | – | – | – | – | – | – | – | – | – | – | –
C=C(CC(=O)c1ccccc1)C(=O)O [F 1350, 2-methylene 4-oxo 4-phenyl butyric acid] | 3 | – | 10000 | insoluble | – | 42,3% | 25,7 | 34.3 | 39.7 | 46.1 | 0 | -17 | 10 | – | – | Solubility in acetone (Solubility properties): 6%; Solubility in dimethyl sulfoxide (Solubility properties; dimethyl sulfoxide): 25%
CC(=CC(=O)c1ccccc1)C(=O)O [F 1351, 2-methyl 4-oxo 4-phenyl 2-butenoic acid] | 5 | 3 | 10000 | – | – | 48,2% | 28,0 | 29.7 | 33.8 | 40.6 | -12 | – | – | -41 | -32 | –
C=C(CC(=O)c1ccc(Cl)cc1)C(=O)O [F 1352, 2-methylene 4-oxo 4-(parachlorophenyl) butyric acid] | 3 | – | 10000 | insoluble | 25 | 40,3% | 26,6 | 35.8 | 37.9 | 37.3 | -19 | -23.6 | – | -28 | -24 | –
C=C(CC(=O)c1ccc(C2CCCCC2)cc1)C(=O)O [F 1353, 2-methylene 4-oxo 4-(paracyclohexylphenyl) butyric acid] | 3 | 1 | – | insoluble | – | – | – | – | – | – | – | – | 20 | – | – | solubility (Solubility properties; water with sodium bicarbonate, water + sodium bicarbonate, read-out: Solubility in water by addition of sodium bicarbonate): 10000 µg/mL
C=C(CC(=O)c1ccc(-c2ccc(Br)cc2)cc1)C(=O)O [F 1378] | – | – | – | – | – | – | – | 45.4 | 47.9 | 52.4 | -8 | -18.3 | – | -26 | -21 | –
C=C(CC(=O)c1ccc(Oc2ccccc2)cc1)C(=O)O [F 1380] | – | – | – | – | – | – | – | – | – | – | – | – | – | – | – | change in vivo at 200 mg/kg (carrageenin edema; [4]): 50.3%; change in vivo at 200 mg/kg (carrageenin edema; [9]): -18%; change in vivo at 200 mg/kg (carrageenin edema; [5]): 52.8%; change in vivo at 200 mg/kg (carrageenin edema; [10]): -12%; change in vivo at 200 mg/kg (carrageenin edema; [6]): 55.6%; change in vivo at 200 mg/kg (carrageenin edema; [7]): -3%; change in vivo at 200 mg/kg (carrageenin edema; [8]): -11%
C=C(CC(=O)c1ccc(-c2ccccc2Cl)cc1)C(=O)OC [F 1440, 2-methylene 4-oxo 4-(4'-o-chlorophenylphenyl) methyl butyrate] | – | – | – | insoluble | 60 | – | – | – | – | – | – | – | 60 | – | – | LD50 at 48 h [2]: > 1000 mg/kg; % var. / action (variation of paw volume increase vs controls) (carrageenin edema; 3 hrs): -22%; % var. / action (variation of paw volume increase vs controls) (carrageenin edema; 4 hrs): -15%; % var. / action (variation of paw volume increase vs controls) (carrageenin edema; 6 hrs): -9%; change in vivo at 75 mg/kg (carrageenin edema; 3 hrs, read-out: % increase in volume of the paw, mean (m)): 47%; change in vivo at 75 mg/kg (carrageenin edema; 4 hrs, read-out: % increase in volume of the paw, mean (m)): 50.5%; change in vivo at 75 mg/kg (carrageenin edema; 6 hrs, read-out: % increase in volume of the paw, mean (m)): 51%; change in vivo at 75 mg/kg (carrageenin edema; [8]): -15%
